Columns and labels:
Schwann cells = assay: NO production by Griess reaction (secreted nitrite in culture medium); type: cell-based, rat; conditions: for NO2 production: Schwann cells exposed to 40 mM glucose, 24 hr, DMD 10^−9 M, L-NIL 10^−4 M
Method: To determine the role of NO signaling in high glucose induced Schwann cell apoptosis, PD2 and PD15 Schwann cells were cultured, as described, in the presence of 5.5 or 40 mM glucose for 24 hr. Cells exposed to 40 mM glucose were also treated with DMD (10^−9 M), the NOS inhibitor L-NIL (10^−4 M) or an inhibitor of the constitutive, Ca^++-dependent isoform of NOS (cNOS), S-methyl-thiocitruline (SMTC, 10^−4 M). […] PD2 Schwann cells were also treated with increasing amounts of TNF-α […] plus IFN-γ (50, 100, 250, and 500U) for 24 hr to establish a dose-response threshold for the assay.
The Griess reaction, which measures secreted nitrite (NO2) in the culture medium, was used to investigate NO production by Schwann cells.

PD2 Schwann cells = assay: Mitochondrial membrane potential (ΔΨM) by CMTMR confocal imaging; type: cell-based, rat; conditions: 40 mM glucose, DMD 10^−9 M; for distribution frequencies of ΔΨM (CMTMR intensity): 6 h, CsA 10^−7, ATR 1 mM; for CMTMR fluorescent intensity (confocal images): 6 hr, CsA 10^−7 M, ATR 1 mM
Excerpt: As has been previously reported in a number of models of apoptosis, apoptotic cell death is often preceded by a fall in mitochondrial membrane potential (ΔΨM). […] This dye is preferentially taken up by actively respiring mitochondria where it binds to protein thiol groups within the mitochondrial matrix and is retained following aldehyde fixation. The CMTMR fluorescence intensity therefore represents the highest level of negativity difference (i.e., the greatest ΔΨM) in the mitochondria during the period of dye exposure prior to fixation.
A Leica true confocal scanning (TCS) microscope was used to image the cells. A pinhole aperture of 20 is maintained with constant laser and photo-detector power settings and an excitation filter wavelength of 488 nm and a band-pass emission filter of 600/30 nm. Each image was scanned using an oil-immersion, 100×, 1.4 N.A. objective at 512 by 512 by 8 bits per pixel resolution, background offset of −1 and line averaged 32 times. The confocal images were saved as grey-scale tagged image file format (TIFF) files for analysis and recolourization. The Metamorph™ (Universal Imaging, Ltd.) image capture and analysis system for Windows was used to measure the intensity of CMTMR fluorescence in individual mitochondria. In each mitochondrion, no fewer than two regions were defined by a box measuring 9 pixels square each. The average intensity per pixel within each defined region is measured and automatically logged to a Microsoft Excel spreadsheet for analysis.
At the end of the indicated time point, Schwann cells so treated were incubated with CMTMR to estimate ΔΨM, fixed with 4% paraformaldehyde, and processed for the immunocytochemical co-localization of hexokinase (Type 1) to mitochondria. The fixed coverslips were blocked for 1 hr with 10% normal donkey serum to minimize non-specific binding, and incubated with a mouse monoclonal antibody raised against hexokinase (Type 1; Chemicon) at a dilution of 1:500 overnight at 4° C. Coverslips were washed in PBS and incubated with a Cy5 conjugated donkey anti-mouse (Jackson Immuno Research) at a dilution of 1:250 for 1 hr at room temperature. Coverslips were then washed with PBS and mounted with Aquamount (BDH).

[1] = Cell rescue with P450 inhibitor Proadifen (animal and cell-culture studies); conditions: P450 inhibitor Proadifen co-administered
[2] = tested on: PD2 (non-proliferating) and PD15 (proliferating) Schwann cells; assay: Schwann cell survival in high glucose media (counts of intact nuclei); type: cell-based, rat; conditions: IGF-1 1 ng/ml, NAC 10^−7 M, DMD 10^−9 M; for Schwann cell survival: 24 hr of high glucose exposure (40 mM); for number of cells (intact nuclei relative to 5.5 mM glucose control): 40 mM glucose, 2 hr
[3] = Stability of deprenyl versus pH of the medium; conditions: pH about 3-5 versus pH about 7
[4] = Hepatic metabolism after oral administration
PC12 cells = conditions: cited from earlier work
[5] = tested on: neuronal and non-neuronal cells; conditions: several systems; cited from earlier work
[6] = tested on: cultured cerebellar granule cells; conditions: cited from earlier work

Row | Compound | CMTMR fluorescent intensity (confocal images) (PD2 Schwann cells) | Schwann cell survival [2] | number of cells (intact nuclei relative to 5.5 mM glucose control) ([2]; non-proliferating cells) | number of cells (intact nuclei relative to 5.5 mM glucose control) ([2]; proliferating cells) | further results
1 | C#CCNC(C)Cc1ccccc1 (single isomer, unassigned; (-)) [DMD, (−)-desmethyldeprenyl] | comparable levels of CMTMR fluorescent intensity compared with cells in base media | significantly improve Schwann cell survival | significant increase | significant increase | NO2 production (Schwann cells): slight decrease; distribution frequencies of ΔΨM (CMTMR intensity) (PD2 Schwann cells): restored ΔΨM distributions comparable with the base media; cell-rescuing activity on administration of Proadifen [1]: does not block the cell-rescuing activity
2 | C#CCN(C)[C@H](C)Cc1ccccc1 [(−)-deprenyl, R-(−)-N,α-Dimethyl-N-2-propynyl phenethylamine] |  |  |  |  | stability [3]: more stable at a pH in the range of about 3-5 than at a pH of about 7; cell-rescuing activity on administration of Proadifen [1]: reduces the ability of (−)-deprenyl to prevent cell death; metabolites formed by the liver [4]: (−)-desmethyldeprenyl, as well as (−)-methamphetamine and (−)-amphetamine; trophic withdrawal induced drop in ΔΨM (PC12 cells): prevent; apoptotic death of neuronal and non-neuronal cells [5]: reduce the apoptotic death; AraC induced drop in ΔΨM [6]: prevent
3 | C=C1[C@@H]2CC[C@H]3[C@]4(C)C[C@H](O[C@@H]5O[C@H](CO)[C@@H](OS(=O)(=O)O)[C@H](OS(=O)(=O)O)[C@H]5OC(=O)CC(C)C)C[C@@H](C(=O)O)[C@H]4CC[C@]3(C2)[C@H]1O [ATR, atractyloside] | decreased CMTMR brightness |  |  |  | distribution frequencies of ΔΨM (CMTMR intensity) (PD2 Schwann cells): pronounced shift to the left
4 | CC(=N)NCCCC[C@H](N)C(=O)O [L-NIL] |  |  |  |  | stimulation of NO2 release by TNF-α/IFN-γ (Schwann cells; L-NIL added): prevented; NO2 production (Schwann cells): slight decrease
5 | CC(=O)N[C@@H](CS)C(=O)O [NAC, N-acetyl-L-cysteine] |  | significantly improve Schwann cell survival | significant increase | significant increase | 
6 | IGF-1: insulin-dependant growth factor (IGF); anti-apoptotic agent added to high glucose media |  | significantly improve Schwann cell survival | significant increase | significant increase | 
7 | cyclosporin A [CsA] | enhanced brightness |  |  |  | 
